Experimental data taken from US10167300B2, “Metalloenzyme inhibitor compounds as fungicides” (priority 2014, dated 2019).
Like-named read-outs stand apart in the source and are kept apart here.

Tests used:
Type in all cases: in vivo, Mycosphaerella graminicola on wheat plants (variety Yuma)
[1] = system: Mycosphaerella graminicola; Anamorph: Septoria tritici; Bayer Code SEPTTR (standard laboratory isolate, SI SEPTTR); test: Type A (high volume) assay, leaf blotch of wheat, standard laboratory SEPTTR isolate (SI SEPTTR); conditions: Zymoseptoria tritici, 24 h, standard laboratory isolate; high volume; 50 ppm; 1 Day Protectant; wheat (Yuma); read-out: Disease Control, SI SEPTTR Type A Assay (50 ppm) 1 DP
How it was run: (§1)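 Wheat seedlings (Yuma, first leaf emerged) sprayed with acetone/Triton X-100 solutions (Type A) or 10% EC diluted in 0.1% Trycol at 200 L/ha (Type B), inoculated before or after spraying. Inoculated plants held 3 days at 20 °C, 100% RH, then greenhouse; % disease control from severity versus untreated plants.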

[2] = Type B (low volume, EC formulation, track sprayer 200 L/ha) assay, leaf blotch of wheat, SEPTTR field isolate (FI SEPTTR); conditions: Zymoseptoria tritici, 72 h, field isolate, low volume EC, 100 g/ha, wheat (Yuma)
How it was run: as §1

[3] = system: Mycosphaerella graminicola; Anamorph: Septoria tritici; Bayer Code SEPTTR (standard laboratory isolate, SI SEPTTR); test: Type B (low volume, EC formulation, track sprayer 200 L/ha) assay, leaf blotch of wheat, standard laboratory SEPTTR isolate (SI SEPTTR); conditions: Zymoseptoria tritici, 72 h, standard laboratory isolate, low volume EC, 100 g/ha, wheat (Yuma)
Protocol: Example A: Evaluation of Fungicidal Activity: Leaf Blotch of Wheat (Mycosphaerella graminicola; Anamorph: Septoria tritici; Bayer Code SEPTTR)
For Type A assays, technical grades of the experimental fungicides in Table 4 below were dissolved in acetone, and then mixed with nine volumes of water containing 110 ppm Triton X-100. The fungicide solutions were applied onto wheat seedlings using an automated booth sprayer. For Type B assays, emulsifiable concentrate (EC) formulations of technical grades of the experimental fungicides in Table 4 below were prepared at 10% (w/v), and then mixed with 150 volumes of 0.1% Trycol 5941. These solutions were applied onto wheat seedlings using an automated track sprayer at 200 L/ha. All sprayed plants were allowed to air dry prior to further handling.
Wheat plants (variety Yuma) were grown from seed in a greenhouse in 50% mineral soil/50% soil-less Metro mix until the first leaf was fully emerged, with 7-10 seedlings per pot. Prior to or after application of experimental fungicides, plants were inoculated either with spores of a standard laboratory SEPTTR isolate (SI SEPTTR) or with spores from a SEPTTR field isolate collected from Wellsbourne, England in 2012 (FI SEPTTR). After inoculation the plants were kept for 3 days at 20° C. in 100% relative humidity (one day in a dark dew chamber followed by two days in a lighted dew chamber). Plants were then transferred to a 20° C. greenhouse for disease development. When disease symptoms were fully expressed on untreated plants, infection levels on treated plants were assessed on a scale of 0 to 100 percent disease severity. Percent disease control was calculated using the ratio of disease severity on treated plants relative to untreated plants.

[4] = 3 Day Curative, read-out: Disease Control, FI SEPTTR Type B Assay (100 g/ha) 3 DC
[5] = 3 Day Protectant, read-out: Disease Control, FI SEPTTR Type B Assay (100 g/ha) 3 DP
[6] = 3 Day Curative, read-out: Disease Control, SI SEPTTR Type B Assay (100 g/ha) 3 DC
[7] = 3 Day Protectant, read-out: Disease Control, SI SEPTTR Type B Assay (100 g/ha) 3 DP

Row | SMILES | pest or weed control at 50 ppm [1] [%] | pest or weed control at 100 g/ha [2, 4] [%] | pest or weed control at 100 g/ha [2, 5] [%] | pest or weed control at 100 g/ha [3, 6] [%] | pest or weed control at 100 g/ha [3, 7] [%]
1 | CC(C)(C)C(O)(c1cccnc1)c1ccc(-c2ccc(OC(F)(F)F)cc2)cn1 (stereo not shown) [Compound 80] | 80 to 100 | 80 to 100 | 80 to 100 | 80 to 100 | 80 to 100
2 | OC(c1cccnc1)(c1ccc(-c2ccc(OC(F)F)cc2)cn1)C1CC1 (stereo not shown) [Compound 81] | 80 to 100 | < 40 | 80 to 100 | 80 to 100 | 60 to 79
3 | CC(C)(C)C(O)(c1cccnc1)c1ccc(-c2ccc(OC(F)F)cc2)cn1 (stereo not shown) [Compound 82] | 80 to 100 | 80 to 100 | 80 to 100 | 80 to 100 | 80 to 100
4 | Cc1ncc(C(O)(c2ccc(-c3ccc(OC(F)(F)F)cc3)cn2)C(C)(C)C)cn1 (stereo not shown) [Compound 83] | 40 to 59 | 80 to 100 | 40 to 59 | < 40 | 40 to 59
5 | CC(C)(C)C(O)(c1ccc(-c2ccc(OC(F)(F)F)cc2)cn1)c1cncs1 (stereo not shown) [Compound 84] | 80 to 100 | 60 to 79 | 60 to 79 | 80 to 100 | 80 to 100
6 | CC(C)(C)C(O)(c1ccc(-c2ccc(OC(F)F)cc2)cn1)c1cncs1 (stereo not shown) [Compound 86] | 60 to 79 | 80 to 100 | 80 to 100 | 80 to 100 | 80 to 100
7 | CC(C)(C)C(O)(c1cncnc1)c1ccc(-c2ccc(C#N)cc2)cn1 (stereo not shown) [Compound 88] | 80 to 100 | 80 to 100 | 80 to 100 | 80 to 100 | 80 to 100
8 | OC(c1ccc(-c2ccc(OC(F)(F)F)cc2)cn1)(c1cncs1)C1CC1 (stereo not shown) [Compound 89] | 80 to 100 | 40 to 59 | 60 to 79 | 80 to 100 | 80 to 100
9 | OC(Cc1ccc(Cl)cc1F)(c1cccnc1)c1ccc(-c2ccc(OC(F)(F)F)cc2)cn1 (stereo not shown) [Compound 90] | 80 to 100 | 80 to 100 | 80 to 100 | 80 to 100 | 80 to 100
10 | OC(c1cccnc1)(c1ccc(-c2ccc(OC(F)(F)F)cc2)cn1)c1ccc(F)cc1F (stereo not shown) [Compound 91] | 80 to 100 | 40 to 59 | 80 to 100 | 60 to 79 | 80 to 100
11 | CC(C)(C)C(O)(c1cccnc1)c1ccc(-c2ccc(OCC(F)(F)F)cc2)cn1 (stereo not shown) [Compound 92] | 80 to 100 | 80 to 100 | 80 to 100 | 80 to 100 | 80 to 100
12 | CCC(C)(C)C(O)(c1cncnc1)c1ccc(-c2ccc(OC(F)(F)F)cc2)cn1 (stereo not shown) [Compound 93, 2,2-dimethyl-1-pyrimidin-5-yl-1-[5-[4-(trifluoromethoxy)phenyl]-2-pyridyl]butan-1-ol] | 80 to 100 | 60 to 79 | 80 to 100 | 80 to 100 | 80 to 100
13 | COc1ccc(-c2ccc(C(O)(c3cncnc3)C(C)(C)C)nc2)cc1 (stereo not shown) [Compound 95] | 80 to 100 | 80 to 100 | 80 to 100 | 80 to 100 | 80 to 100
14 | CC(C)(C)C(O)(c1cncnc1)c1ccc(-c2ccc(C(F)(F)F)cc2)cn1 (stereo not shown) [Compound 96] | 80 to 100 | 80 to 100 | 80 to 100 | 80 to 100 | 80 to 100
15 | CC(C)(C)c1ccc(-c2ccc(C(O)(c3cncnc3)C(C)(C)C)nc2)cc1 (stereo not shown) [Compound 97] | 80 to 100 | 80 to 100 | 80 to 100 | 80 to 100 | 80 to 100
16 | CSc1ccc(-c2ccc(C(O)(c3cncnc3)C(C)(C)C)nc2)cc1 (stereo not shown) [Compound 98] | 80 to 100 | 80 to 100 | 80 to 100 | 80 to 100 | 80 to 100
17 | CC(=O)c1ccc(-c2ccc(C(O)(c3cncnc3)C(C)(C)C)nc2)cc1 (stereo not shown) [Compound 101] | 80 to 100 | 80 to 100 | 80 to 100 | 80 to 100 | 80 to 100
18 | CC(C)(C)C(O)(c1cncnc1)c1ccc(-c2ccc(OC3CC3)cc2)cn1 (stereo not shown) [Compound 102] | 80 to 100 | 80 to 100 | 80 to 100 | 80 to 100 | 80 to 100
19 | CC(C)(C)C(O)(c1cncnc1)c1ccc(-c2cccc(OC(F)(F)F)c2)cn1 (stereo not shown) [Compound 103] | 80 to 100 | < 40 | 80 to 100 | 60 to 79 | 80 to 100
20 | CC(C)(C)C(O)(c1cncnc1)c1ccc(-c2ccccc2OC(F)(F)F)cn1 (stereo not shown) [Compound 104] | 80 to 100 | < 40 | 80 to 100 | 80 to 100 | 80 to 100
21 | CC(C)(C)C(O)(c1cncnc1)c1ccc(-c2ccc(C3(C#N)CC3)cc2)cn1 (stereo not shown) [Compound 105] | 80 to 100 | 80 to 100 | 80 to 100 | 80 to 100 | 80 to 100
22 | CC(C)(C)C(O)(c1cncnc1)c1ccc(-c2ccc(OC(F)(F)F)c(F)c2)cn1 (stereo not shown) [Compound 106] | 80 to 100 | 80 to 100 | 80 to 100 | 80 to 100 | 80 to 100
23 | CC(C)(C)C(O)(c1cncnc1)c1ccc(-c2ccc(C(F)(F)F)nc2)cn1 (stereo not shown) [Compound 107] | 80 to 100 | 80 to 100 | 60 to 79 | 80 to 100 | 60 to 79
24 | CC(C)(C)C(O)(c1cncnc1)c1ccc(-c2ccccc2)cn1 (stereo not shown) [Compound 114] | 60 to 79 | 80 to 100 | 60 to 79 | 80 to 100 | 80 to 100
25 | CC(C)(C)C(O)(c1cncnc1)c1ccc(-c2ccc(F)cc2)cn1 (stereo not shown) [Compound 115] | 80 to 100 | 80 to 100 | 80 to 100 | 80 to 100 | 80 to 100
26 | Cc1cc(-c2ccc(C(O)(c3cncnc3)C(C)(C)C)nc2)ccc1OC(F)(F)F (stereo not shown) [Compound 116] | 60 to 79 | 80 to 100 | 60 to 79 | 80 to 100 | 80 to 100
